From patent US6579556B2, “Ambient stable beverage” (Lipton, division of Conopco, Inc., priority 2000, dated 2003)
Values after ≈ are worked out from the molar mass of the structure shown. Where two headings read alike, the source gives them in different places.

System: yeast Saccharomyces cerevisiae X2180-1B
Experiment: Fungicidal activity / MIC at 50° C. versus 30° C., yeast survival in YEPD broth pH 3.4
Format: cell-based
Settings: for Importance: rating as pasteurisation adjunct
Procedure: In the table the minimum inhibitory concentration (MIC) is given for each compound as well as the molecular weight (M.W.), the logPoct and a rating of its importance. […] The logPoct, that is the logarithm of the partition coefficient of the relevant compound in octanol and thus a measure of its […], was determined using […]™ software from the CHEMOFFICE ULRA ENHANCED 2000™ software package (version 5.5) that is commercially available from CambridgeSoft.
(§1) YEPD contained glucose, 20 g/l, peptone 20 g/l and yeast extract 10 g/l. Rows of 30 ml tubes containing 10 ml YEPD, pH 3.4, were equilibrated at the required temperature for 7 minutes in a water bath, before inoculation with 10^4 cells/ml of the yeast Saccharomyces cerevisiae X2180-1B. Tubes were held at temperature for 10 minutes before being cooled rapidly in cold water for 5 minutes. Tubes were then incubated for 48 hours at 25° C. to allow surviving yeasts to grow out, and form discrete colonies.
as §1, §1, §1

[1] = Saccharomyces cerevisiae, minimum inhibitory concentration, 50° C., read-out: MIC50
[2] = Saccharomyces cerevisiae, read-out: MIC50
[3] = Saccharomyces cerevisiae, minimum inhibitory concentration, 50° C., given as ppm, read-out: MIC50

Molecule	MIC [1]	Importance	also measured
CCCCCCCCCCCCCO [Tridecanol]	0.05 mM (≈ 10 µg/mL)	High (High effects compounds, most preferred, generally showed at least a 5 fold decrease in MIC, minimum inhibitory concentration at 50 °C compared with 30° C.)	
CCCCCC(=O)OCCC(C)C [Isoamyl hexanoate]	5 mM (≈ 931 µg/mL)	High (High effects compounds, most preferred, generally showed at least a 5 fold decrease in MIC, minimum inhibitory concentration at 50 °C compared with 30° C.)	
C=CCCCCCCCCC(=O)OCC [Ethyl 10-undecenoate]	50 mM (≈ 10600 µg/mL)	High (High effects compounds, most preferred, generally showed at least a 5 fold decrease in MIC, minimum inhibitory concentration at 50 °C compared with 30° C.)	
CCCCCCCCCOC(C)=O [Nonyl acetate]	5 mM	High (High effects compounds, most preferred, generally showed at least a 5 fold decrease in MIC, minimum inhibitory concentration at 50 °C compared with 30° C.)	
CCCCCCCCC(=O)OCC [Ethyl nonanoate]	10 mM (≈ 1860 µg/mL)	High (High effects compounds, most preferred, generally showed at least a 5 fold decrease in MIC, minimum inhibitory concentration at 50 °C compared with 30° C.)	
CCCCCCCC(=O)OCCc1ccccc1 [Phenethyl octanoate]	40 mM (≈ 9930 µg/mL)	Mod	
CCCCCCCCCCC(=O)OCC [Ethyl undecanoate]	50 mM (≈ 10700 µg/mL)	Mod	
CCCCCCCCCCCC(=O)OC [Methyl laurate]	40 mM (≈ 8570 µg/mL)	High (High effects compounds, most preferred, generally showed at least a 5 fold decrease in MIC, minimum inhibitory concentration at 50 °C compared with 30° C.)	
CCC(=O)OC/C=C(\C)CCC=C(C)C [Geranyl propionate]	12 mM (≈ 2520 µg/mL)	High (High effects compounds, most preferred, generally showed at least a 5 fold decrease in MIC, minimum inhibitory concentration at 50 °C compared with 30° C.)	
CCCCCCCCCCCCCC(=O)O [Myristic acid]	50 mM (≈ 11400 µg/mL)	High (High effects compounds, most preferred, generally showed at least a 5 fold decrease in MIC, minimum inhibitory concentration at 50 °C compared with 30° C.)	
CCCCCCCCCC(C)=O [2-Undecanone]		High (High effects compounds, most preferred, generally showed at least a 5 fold decrease in MIC, minimum inhibitory concentration at 50 °C compared with 30° C.)	MIC [2]: 1 mM (≈ 170 µg/mL)
CCCCCCCCCCCCCCC(=O)O [Pantadecanoic acid]		Low	MIC50 (minimum inhibitory concentration, 50° C.): 80 mM
C=CCCCCCCCCC(=O)OCCCC [Butyl 10-undecenoate]	40 mM (≈ 9620 µg/mL)	Mod	
CC(C)=CCC/C(C)=C\COC(=O)C(C)C [Neryl isobutyrate]	30 mM (≈ 6730 µg/mL)	High (High effects compounds, most preferred, generally showed at least a 5 fold decrease in MIC, minimum inhibitory concentration at 50 °C compared with 30° C.)	
CCCCCCCCCC=CC=O [2-Dodecenal]	< 0.05 mM	High (High effects compounds, most preferred, generally showed at least a 5 fold decrease in MIC, minimum inhibitory concentration at 50 °C compared with 30° C.)	MIC50 [3]: < 9 mg/L
CCCCCCCCCCCC(=O)OCC [Ethyl laurate]	80 mM (≈ 18300 µg/mL)	Mod	
CCCC(=O)OC/C=C(\C)CCC=C(C)C [Geranyl butyrate]	40 mM (≈ 8970 µg/mL)	High (High effects compounds, most preferred, generally showed at least a 5 fold decrease in MIC, minimum inhibitory concentration at 50 °C compared with 30° C.)	
CCCCCCCCCCCCCC=O [Myristaldehyde]	40 mM (≈ 8500 µg/mL)	Mod	
CCCCCCCCCC(=O)OCC [Ethyl decanoate]	40 mM (≈ 8010 µg/mL)	High (High effects compounds, most preferred, generally showed at least a 5 fold decrease in MIC, minimum inhibitory concentration at 50 °C compared with 30° C.)	
CC=CCCCCCCCC(=O)OC [Methyl-9-undecenoate]	40 mM (≈ 7930 µg/mL)	High (High effects compounds, most preferred, generally showed at least a 5 fold decrease in MIC, minimum inhibitory concentration at 50 °C compared with 30° C.)	

Molecule	MIC [1]	Importance	also measured
CCCCCCCC(=O)OCCCCC [Amyl octanoate]	60 mM (≈ 12900 µg/mL)	Mod	
CCCCCCCCCC(=O)OC [Methyl decanoate]	2 mM (≈ 373 µg/mL)	High (High effects compounds, most preferred, generally showed at least a 5 fold decrease in MIC, minimum inhibitory concentration at 50 °C compared with 30° C.)	
CCCCCCCCCCC(=O)OC [Methyl undecanoate]	50 mM (≈ 10000 µg/mL)	High (High effects compounds, most preferred, generally showed at least a 5 fold decrease in MIC, minimum inhibitory concentration at 50 °C compared with 30° C.)	
CCCCCCCCCCCCCCCO [Pentadecanol]	75 mM (≈ 17100 µg/mL)	Low	
methyl decenoate			fungicidal activity at 30° C. (30° C.): no fungicidal activity; fungicidal activity when heated to 50° C. (50° C.): significant fungicidal activity
CCCCCOC(=O)CCCCC [Amyl hexanoate]	2 mM (≈ 373 µg/mL)	High (High effects compounds, most preferred, generally showed at least a 5 fold decrease in MIC, minimum inhibitory concentration at 50 °C compared with 30° C.)	
CCCC(=O)OC/C=C(/C)CCC=C(C)C [Neryl butyrate]	50 mM (≈ 11200 µg/mL)	Mod	
CCCCCCCCCCCCOC(C)=O [Lauryl acetate]	40 mM	Mod	
CCCCCCCCCCOC(=O)CCC [Decyl butyrate]	70 mM (≈ 16000 µg/mL)	Low	
CCCCCCCC(=O)OCCCCCC [Hexyl octanoate]	10 mM (≈ 2280 µg/mL)	Mod	
CCCCCCCCC(=O)OC [Methyl nonanoate]	2 mM (≈ 345 µg/mL)	High (High effects compounds, most preferred, generally showed at least a 5 fold decrease in MIC, minimum inhibitory concentration at 50 °C compared with 30° C.)	
CCCCCCCOC(=O)CCC [Heptyl butyrate]	2 mM (≈ 373 µg/mL)	High (High effects compounds, most preferred, generally showed at least a 5 fold decrease in MIC, minimum inhibitory concentration at 50 °C compared with 30° C.)	
CCCCCCCCCCCCCCCCO [Hexadecanol]	100 mM (≈ 24200 µg/mL)	Low	
CCCCCCCCCCCC(=O)OCCC(C)C [Isoamyl laurate]		Low	
C=CC(C)(CCC=C(C)C)OC(C)=O (stereo not shown) [Linalyl acetate]		Mod	MIC [2]: 10 mM
C=CC(C)(O)CCC=C(C)CCC=C(C)C (stereo not shown) [Nerolidol]	1.5 mM (≈ 334 µg/mL)	High (High effects compounds, most preferred, generally showed at least a 5 fold decrease in MIC, minimum inhibitory concentration at 50 °C compared with 30° C.)	
CC(C)CCOC(=O)c1ccccc1O [Isoamyl salicylate]	15 mM (≈ 3120 µg/mL)	Mod	
CCCCCC(=O)OCCc1ccccc1 [Phenethyl hexanoate]	10 mM (≈ 2200 µg/mL)	High (High effects compounds, most preferred, generally showed at least a 5 fold decrease in MIC, minimum inhibitory concentration at 50 °C compared with 30° C.)	
CCCCCCCCCCC=CC=O [2-Tridecenal]	< 0.05 mM	High (High effects compounds, most preferred, generally showed at least a 5 fold decrease in MIC, minimum inhibitory concentration at 50 °C compared with 30° C.)	MIC50 [3]: < 9.8 mg/L
